Measured values taken from patent US20220279826A1, “OFF-FLAVOR SUPPRESSING AGENT” (AJINOMOTO CO., INC., priority 2019, published 2022).

Assays:
[1] = Sensory evaluation in sodium acetate aqueous solution (Experimental Example 18); conditions: Table 33
Method: Each compound shown in the following Table 33 was added to an aqueous solution prepared by dissolving sodium acetate (1 part by weight) and acetic acid (0.3 parts by weight) in water (98.7 parts by weight) (hereinafter at times referred to as sodium acetate aqueous solution) so as to achieve the concentration (addition concentration) shown in the following Table 33 to prepare each evaluation sample.
(§1) Based on the following evaluation criteria, a panel of four experts determined by consensus the intensity of off-tastes (bitter taste, harsh taste, astringent taste) derived from sodium acetate in each evaluation sample, by comparison with a sodium acetate aqueous solution without addition of any compound (negative control).

[2] = Sensory evaluation in granular fava bean protein (Experimental Example 16); conditions: Table 30
Method: Each compound shown in the following Table 30 was added to granular fava bean protein (manufactured by Schouten) so as to achieve the concentration (addition concentration) shown in the following Table 30 to prepare each evaluation sample.
as §1, with “fava bean protein” for “sodium acetate”, “granular fava bean protein” for “a sodium acetate aqueous solution”

[3] = Sensory evaluation in 0.12 wt % aspartame aqueous solution (Experimental Example 12); conditions: Table 26
Method: (§2) Each compound shown in the following Table 26 was added to a 0.12 wt % aspartame aqueous solution (an aqueous solution prepared by dissolving aspartame (0.12 parts by weight) in ion exchange water (99.88 parts by weight)) so as to achieve the concentration (addition concentration) shown in the following Table 26 to prepare each evaluation sample.
as §1, with “of three” for “of four”, “taste, metallic” for “taste, astringent”, “from aspartame” for “from sodium acetate”, “a 0.12 wt % aspartame” for “a sodium acetate”

[4] = Sensory evaluation in pea protein aqueous solution (Experimental Example 8); conditions: text summary of Table 22
Method: Each compound shown in the following Table 22 was added to an aqueous solution prepared by dissolving powdered pea protein (6 parts by weight) and granulated sugar (4 parts by weight) in ion exchange water (90 parts by weight) (hereinafter at times referred to as pea protein aqueous solution) so as to achieve the concentration (addition concentration) shown in the following Table 22 to prepare each evaluation sample. Here, the powdered pea protein manufactured by Cosucra was used.
as §1, with “pea protein” for “sodium acetate”

[5] = Sensory evaluation in stevia aqueous solution (Experimental Example 7); conditions: text summary of Table 21
Method: Each compound shown in the following Table 21 was added […] to an aqueous solution prepared by dissolving stevia (manufactured by PureCircle) ([…]) in ion exchange water (99.93 parts by weight) (hereinafter at times referred to as stevia aqueous solution) so as to achieve the concentration (addition concentration) shown in the following Table 21 to prepare each evaluation sample.
as §1, with “metallic” for “astringent”, “stevia” for “sodium acetate”

[6] = Sensory evaluation in 0.007 wt % sucralose aqueous solution (Experimental Example 11); conditions: Table 25
Method: as §2, with “25” for “26”, “0.007” for “0.12”, “sucralose” for “aspartame”, “sucralose (0.007” for “aspartame (0.12”, “in” for “in ion exchange”, “(99.993” for “(99.88”
as §1, with “of three” for “of four”, “taste, metallic” for “taste, astringent”, “from sucralose” for “from sodium acetate”, “a 0.007 wt % sucralose” for “a sodium acetate”

[7] = Sensory evaluation in potage solution with potassium chloride (Experimental Example 3); conditions: Potage solution with 0.8 wt % potassium chloride
Method: (§3) As shown in the following (1) to (3) below, 0.8 wt % of potassium chloride was added to a food base powder corresponding to 0.5 wt % of sodium chloride to prepare each base solution having an off-taste derived from potassium chloride.
Potassium chloride (0.8 g) was added to a commercially available powdered instant potage (manufactured by Ajinomoto Co., Inc., trade name “Knorr (registered trade mark) Cup Soup Potage”) (7.1 g), hot water (92.1 g) was added to dissolve the mixture to prepare a base solution (potage solution).
(§4) Each compound shown in the following Tables 15 to 17 was added to each base solution (ramen noodle soup solution, chicken broth solution, potage solution) so as to achieve the concentration (addition concentration) shown in the following Tables 15 to 17 to prepare each evaluation sample.
(§5) By a method similar to that in Experimental Example 1, a panel of two experts determined the intensity of off-tastes (bitter taste, metallic taste, harsh taste, astringent taste) derived from potassium chloride in each evaluation sample.

[8] = Sensory evaluation in ramen noodle soup solution with potassium chloride (Experimental Example 3); conditions: for off-taste suppressing effect: Ramen noodle soup solution with 0.8 wt % potassium chloride; for intensity of off-tastes (bitter taste, metallic taste, harsh taste, astringent taste) derived from potassium chloride: base solutions of Tables 15 to 17 (ramen noodle soup, chicken broth, potage)
Method: as §3
Potassium chloride (0.8 g) was added to a soup powder (1.1 g) of a commercially available instant ramen noodle (manufactured by SANYO FOODS Co., Ltd., trade name “Sapporo Ichiban Shouyuaji”), hot water (98.1 g) was added to dissolve the mixture to prepare a base solution (ramen noodle soup solution).
as §4, §5

[9] = Sensory evaluation in chicken broth solution with potassium chloride (Experimental Example 3); conditions: chicken broth solution with 0.8 wt % potassium chloride
Method: as §3
Potassium chloride (0.8 g) was added to a commercially available powdered chicken broth mix (manufactured by Ajinomoto Co., Inc., trade name “Marutorigara Soup”) (1.0 g), hot water (98.2 g) was added to dissolve the mixture to prepare a base solution (chicken broth soup solution).
as §4, §5

[10] = Sensory evaluation in Japanese noodle soup base solution with potassium chloride (0.2 g) (Experimental Example 5); conditions: for off-taste suppressing effect: Japanese noodle soup base solution, potassium chloride 0.2 g; for intensity of off-tastes (bitter taste, metallic taste, harsh taste, astringent taste) derived from potassium chloride: base solution of Table 19
Method: Potassium chloride (0.2 g) was added to a commercially available Japanese noodle soup base (manufactured by Yamaki Co., Ltd.) (11.1 g), and dissolved by adding hot water (88.7 g) to prepare a base solution.
Each compound shown in the following Table 19 was added to the base solution prepared above so as to achieve the concentration (addition concentration) shown in the following Table 19 to prepare each evaluation sample.
Based on the following evaluation criteria, a panel of two experts determined by consensus the intensity of off-tastes (bitter taste, metallic taste, harsh taste, astringent taste) derived from potassium chloride in each evaluation sample, by reference to each potassium chloride aqueous solution adjusted to 0.2 wt %, 0.15 wt % or 0.1 wt %.

[11] = addition concentration 100 ppb (12.5 weight ppm with respect to potassium chloride)
[12] = addition concentration 100 weight ppb (50 weight ppm with respect to potassium chloride)
[13] = addition concentration 10 ppb (1.25 weight ppm with respect to potassium chloride)

Compound | intensity of off-tastes (bitter taste, harsh taste, astringent taste) derived from sodium acetate [1] | intensity of off-tastes (bitter taste, harsh taste, astringent taste) derived from fava bean protein [2] | intensity of off-tastes (bitter taste, harsh taste, metallic taste) derived from aspartame [3] | intensity of off-tastes (bitter taste, harsh taste, astringent taste) derived from pea protein [4] | intensity of off-tastes (bitter taste, harsh taste, metallic taste) derived from stevia [5] | intensity of off-tastes (bitter taste, harsh taste, metallic taste) derived from sucralose [6] | off-taste suppressing effect [7, 11] | off-taste suppressing effect [8, 11] | intensity of off-tastes (bitter taste, metallic taste, harsh taste, astringent taste) derived from potassium chloride [8] | off-taste suppressing effect [9, 11] | off-taste suppressing effect [10, 12] | intensity of off-tastes (bitter taste, metallic taste, harsh taste, astringent taste) derived from potassium chloride [10] | off-taste suppressing effect [7, 13] | off-taste suppressing effect [8, 13] | off-taste suppressing effect [9, 13] | off-taste suppressing effect ([10]; addition concentration 25 weight ppb (12.5 weight ppm with respect to potassium chloride))
CC(=O)c1ccc(C)o1 [2-acetyl-5-methylfuran] | suppressed | suppressed | suppressed | suppressed | suppressed | suppressed |  |  |  |  |  |  |  |  |  | 
CC(=O)c1ccco1 [2-acetylfuran] | suppressed | suppressed | suppressed | suppressed | suppressed | suppressed | ++ (intensity of the same level as potassium chloride aqueous solution with potassium chloride concentration of not less than 0.7 wt % and less than 0.75 wt %) | +++ (intensity of the same level as potassium chloride aqueous solution with potassium chloride concentration of not less than 0.65 wt % and less than 0.7 wt %) | decreased | ++ (intensity of the same level as potassium chloride aqueous solution with potassium chloride concentration of not less than 0.7 wt % and less than 0.75 wt %) | ++ (intensity of the same level as potassium chloride aqueous solution with potassium chloride concentration of not less than 0.1 wt % and less than 0.15 wt %) | decreased |  |  |  | 
CC1OCCC1=O (centres unmarked) [2-methyltetrahydrofuran-3-one] | suppressed | suppressed | suppressed | suppressed | suppressed | suppressed |  |  |  |  | + (intensity of the same level as potassium chloride aqueous solution with potassium chloride concentration of not less than 0.15 wt % and less than 0.2 wt %) | decreased |  |  |  | 
CC1=C(O)C(=O)CC1 [cyclotene] | suppressed | suppressed | suppressed | suppressed | suppressed | suppressed |  |  | decreased |  |  | decreased | +++ (intensity of the same level as potassium chloride aqueous solution with potassium chloride concentration of not less than 0.65 wt % and less than 0.7 wt %) | +++ (intensity of the same level as potassium chloride aqueous solution with potassium chloride concentration of not less than 0.65 wt % and less than 0.7 wt %) | +++ (intensity of the same level as potassium chloride aqueous solution with potassium chloride concentration of not less than 0.65 wt % and less than 0.7 wt %) | +++ (intensity of the same level as potassium chloride aqueous solution with potassium chloride concentration of less than 0.1 wt %)
